Results reported in US20250352587A1, “PROBIOTIC AND USE THEREOF” (priority 2023, published 2025).
Values after ≈ are worked out from the molar mass of the structure shown. Like-named read-outs stand apart in the source and are kept apart here.

What was measured:
Lsali-1 = assay: Antibiotic susceptibility test, broth dilution MIC; assay type: cell-based, Lactobacillus salivarius; conditions: anaerobic, 37° C., 46-48 h; for MIC: Ligilactobacillus salivarius, read-out: MIC against Lsali-1
Protocol: (§1) According to the requirements for antibiotic susceptibility tests of anaerobic bacteria in “Technical specification on antimicrobial susceptibility tests” (Standard No. WS/T 639-2018) of the People's Republic of China Health Industry Standard, the susceptibility of the strains to antibiotics was determined by a broth dilution method, and the MIC values were recorded.
(§2) 0.1 mL of the prepared 5 bacterial suspensions were sequentially pipetted into 96-well plates containing equal volumes of prepared antibacterial drugs, such that the final concentration of the inoculated bacteria was 5×10^5 CFU/mL, and the drug concentrations were 256 μg/mL, 128 μg/mL, 64 μg/mL, 32 μg/mL, 16 μg/mL, 8 μg/mL, 4 μg/mL, 2 μg/mL, 1 μg/mL, 0.5 μg/mL, 0.25 μg/mL, and 0.125 μg/mL, respectively. Incubation: The above 96-well plates were anaerobically incubated in an incubator at 37° C. for 46-48 h.

Bbifi-1 = assay: Antibiotic susceptibility test, broth dilution MIC; assay type: cell-based, Bifidobacterium bifidum; conditions: for MIC: Bifidobacterium bifidum, read-out: MIC against Bbifi-1
Protocol: as §1, §2

Lferm-1 = assay: Antibiotic susceptibility test, broth dilution MIC; assay type: cell-based, Limosilactobacillus fermentum; conditions: for MIC: Limosilactobacillus fermentum, read-out: MIC against Lferm-1
Protocol: as §1, §2

Eaviu-1 = assay: Antibiotic susceptibility test, broth dilution MIC; assay type: cell-based, Enterococcus avium; conditions: for MIC: Enterococcus avium, read-out: MIC against Eaviu-1
Protocol: as §1, §2

Pdist-1 = assay: Antibiotic susceptibility test, broth dilution MIC; assay type: cell-based, Parabacteroides distasonis; conditions: for MIC: Parabacteroides distasonis, read-out: MIC against Pdist-1
Protocol: as §1, §2

colon injury = assay: Colon histopathology (HE staining) in mice with 5-FU-induced diarrhea; assay type: in vivo; conditions: panels 1A and 2A in FIG. 13
Protocol: After the animal experiment, the middle colon of the mice was collected and fixed in 4% paraformaldehyde for 24 h. The fixed colon tissues were sequentially dehydrated, transparentized, waxed, and embedded. The embedded paraffin blocks of colon tissues were sectioned at a thickness of 5 μm, followed by spreading and baking, and the dried sections were subjected to conventional HE staining. The pathological changes were observed under an optical microscope. Pathological scoring was performed according to Table 6 below, and the total pathological scores (the sum of the scores of all indices) were calculated.

[1] = broth dilution, anaerobic, 37° C., 46-48 h

| Compound | MIC (Lsali-1) [µg/mL] | MIC (Bbifi-1; [1]) [µg/mL] | MIC (Lferm-1; [1]) [µg/mL] | MIC (Eaviu-1; [1]) [µg/mL] | MIC (Pdist-1; [1]) [µg/mL] | also measured |
| --- | --- | --- | --- | --- | --- | --- |
| O=C(N[C@H](CO)[C@H](O)c1ccc([N+](=O)[O-])cc1)C(Cl)Cl [Chloramphenicol] | 256 (≈ 792 µM) | 8 (≈ 24.8 µM) | 0.125 (≈ 0.387 µM) | 128 (≈ 396 µM) | – | – |
| CO[C@H]1/C=C/O[C@@]2(C)Oc3c(C)c(O)c4c(O)c(c(/C=N/N5CCN(C)CC5)c(O)c4c3C2=O)NC(=O)/C(C)=C\C=C\[C@H](C)[C@H](O)[C@@H](C)[C@@H](O)[C@@H](C)[C@H](OC(C)=O)[C@@H]1C [Rifampicin] | – | – | – | – | < 0.125 | – |
| [H]/N=C(/N)N[C@H]1[C@H](O)[C@@H](O)[C@H](O[C@@H]2O[C@@H](C)[C@](O)(C=O)[C@H]2O[C@@H]2O[C@@H](CO)[C@H](O)[C@@H](O)[C@@H]2NC)[C@@H](N/C(N)=N\[H])[C@@H]1O [Streptomycin] | 128 (≈ 220 µM) | 128 (≈ 220 µM) | 0.125 (≈ 0.215 µM) | 128 (≈ 220 µM) | < 0.125 | – |
| CN(C)[C@@H]1C(O)=C(C(N)=O)C(=O)[C@@]2(O)C(O)=C3C(=O)c4c(O)cccc4[C@@](C)(O)[C@H]3C[C@@H]12 [Tetracycline] | 0.5 (≈ 1.13 µM) | 0.125 (≈ 0.281 µM) | < 0.125 | 0.5 (≈ 1.13 µM) | 8 (≈ 18 µM) | – |
| CCC[C@@H]1C[C@@H](C(=O)N[C@@H]([C@H]2O[C@H](SC)[C@H](O)[C@@H](O)[C@H]2O)[C@H](C)Cl)N(C)C1 [Clindamycin] | 8 (≈ 18.8 µM) | 1 (≈ 2.35 µM) | < 0.125 | 4 (≈ 9.41 µM) | 16 (≈ 37.6 µM) | – |
| CO/N=C(\C(=O)N[C@@H]1C(=O)N2C(C(=O)O)=C(CSc3nc(=O)c(=O)[nH]n3C)CS[C@H]12)c1csc(N)n1 [Ceftriaxone] | – | – | – | – | 16 (≈ 28.9 µM) | – |
| CC[C@H]1OC(=O)[C@H](C)[C@@H](O[C@H]2C[C@@](C)(OC)[C@@H](O)[C@H](C)O2)[C@H](C)[C@@H](O[C@@H]2O[C@H](C)C[C@H](N(C)C)[C@H]2O)[C@](C)(O)C[C@@H](C)C(=O)[C@H](C)[C@@H](O)[C@]1(C)O [Erythromycin] | 0.125 (≈ 0.17 µM) | 0.125 (≈ 0.17 µM) | < 0.125 | 0.25 (≈ 0.341 µM) | 32 (≈ 43.6 µM) | – |
| Penicillin | – | – | – | – | – | MIC against Pdist-1 (Pdist-1; [1]): 8 µg/mL |
| C[C@H]1COc2c(N3CCN(C)CC3)c(F)cc3c(=O)c(C(=O)O)cn1c23 [Levofloxacin] | – | – | – | – | 8 (≈ 22.1 µM) | – |
| CN[C@H](CC(C)C)C(=O)N[C@H]1C(=O)N[C@@H](CC(N)=O)C(=O)N[C@H]2C(=O)N[C@H]3C(=O)N[C@H](C(=O)N[C@H](C(=O)O)c4cc(O)cc(O)c4-c4cc3ccc4O)[C@H](O)c3ccc(c(Cl)c3)Oc3cc2cc(c3O[C@@H]2O[C@H](CO)[C@@H](O)[C@H](O)[C@H]2O[C@H]2C[C@](C)(N)[C@H](O)[C@H](C)O2)Oc2ccc(cc2Cl)[C@H]1O [Vancomycin] | – | – | – | – | – | MIC (Pdist-1): 8 µg/mL (≈ 5.52 µM); MIC (Bbifi-1): 1 µg/mL (≈ 0.69 µM); MIC (Lferm-1): 0.125 µg/mL (≈ 0.0863 µM); MIC (Eaviu-1): 2 µg/mL (≈ 1.38 µM) |
| CN(C)C(=O)C(CCN1CCC(O)(c2ccc(Cl)cc2)CC1)(c1ccccc1)c1ccccc1 [loperamide] | – | – | – | – | – | colon histopathological observation (HE staining) (colon injury): the colon structure was relatively intact, mucosal epithelial cells showed no significant necrosis, the number of goblet cells was significantly increased, and only a small amount of lymphocyte infiltration was observed in the lamina propria |
| CC1(C)S[C@@H]2[C@H](NC(=O)[C@H](N)c3ccccc3)C(=O)N2[C@H]1C(=O)O [Ampicillin] | 4 (≈ 11.4 µM) | 0.25 (≈ 0.715 µM) | 0.5 (≈ 1.43 µM) | 4 (≈ 11.4 µM) | 8 (≈ 22.9 µM) | – |
| Gentamicin | – | – | – | – | – | MIC against Lsali-1 (Lsali-1): 16 µg/mL; MIC against Pdist-1 (Pdist-1; [1]): <0.125 µg/mL; MIC against Bbifi-1 (Bbifi-1; [1]): 8 µg/mL; MIC against Lferm-1 (Lferm-1; [1]): 0.125 µg/mL; MIC against Eaviu-1 (Eaviu-1; [1]): 8 µg/mL |
| NC[C@H]1O[C@H](O[C@H]2[C@H](O)[C@@H](O[C@H]3O[C@H](CO)[C@@H](O)[C@H](N)[C@H]3O)[C@H](N)C[C@@H]2N)[C@H](O)[C@@H](O)[C@@H]1O [Kanamycin] | 256 (≈ 528 µM) | – | – | – | – | – |
| C[C@@H](O)[C@H]1C(=O)N2C(C(=O)O)=C(SCCN=CN)C[C@H]12 [Imipenem] | – | – | – | – | 16 (≈ 53.4 µM) | – |
